# ± gives the expanded uncertainty stated by the source.
# Legend:
# [1] = Crystal; DTA
# [2] = Molar enthalpy of transition or fusion; details: DSC
Compound,Normal melting temperature [1] [°C],Molar enthalpy of transition or fusion ([2]; Crystal 2) [kcal/mol],Molar enthalpy of transition or fusion ([2]; Crystal) [kcal/mol]
CCCCCCCCCCCCCCCCO [1-hexadecanol],48.00 ± 5,13.1 ± 0.813,–
CCCCCCCCCCCCCCCCCCO [1-octadecanol],54.00 ± 5,–,16.2 ± 1.03
CCCCCCCCCCCCCCO [1-tetradecanol],36.00 ± 5,–,12.3 ± 0.765
CCCCCCCC/C=C\CCCCCCCCO [(Z)-9-octadecen-1-ol],-1.00 ± 5,–,8.41 ± 0.502
CCCCCCCCCCO [decan-1-ol],3.00 ± 5,–,7.79 ± 0.502
CCCCCCCCCCOC(=O)OCCCCCCCCCC [didecyl carbonate],-1.00 ± 6,–,11.9 ± 0.741
CCCCCCCCCCCCO [dodecan-1-ol],23.00 ± 5,–,8.33 ± 0.526

# Further lines, results first:
Normal melting temperature [1] [°C],Molar enthalpy of transition or fusion ([2]; Crystal 2) [kcal/mol],Molar enthalpy of transition or fusion ([2]; Crystal) [kcal/mol],Compound
21.00 ± 6,–,16.6 ± 1.05,CCCCCCCCCCCCOC(=O)OCCCCCCCCCCCC [didodecyl carbonate]
47.00 ± 6,–,23.7 ± 1.46,CCCCCCCCCCCCCCCCOC(=O)OCCCCCCCCCCCCCCCC [dihexadecyl carbonate]
50.00 ± 6,–,24.3 ± 1.48,CCCCCCCCCCCCCCCCCCOC(=O)OCCCCCCCCCCCCCCCCCC [dioctadecyl carbonate]
-4.00 ± 6,–,13.5 ± 0.813,CCCCCCCC/C=C\CCCCCCCCOC(=O)OCCCCCCCC/C=C\CCCCCCCC [dioleyl carbonate]
35.00 ± 6,–,22.6 ± 1.41,CCCCCCCCCCCCCCOC(=O)OCCCCCCCCCCCCCC [ditetradecyl carbonate]
